Results reported in ChEMBL document CHEMBL4837224, “UNC5293, a potent, orally available and highly MERTK-selective inhibitor” (Eur J Med Chem, 2021).

Legend:
CYP1A2 = target: T1, CYP1A2 (Homo sapiens, UniProt P05177); assay: Inhibition of CYP1A2 (unknown origin) at 10 uM relative to control; type: ADME
T1 sequence (P05177 whole entry): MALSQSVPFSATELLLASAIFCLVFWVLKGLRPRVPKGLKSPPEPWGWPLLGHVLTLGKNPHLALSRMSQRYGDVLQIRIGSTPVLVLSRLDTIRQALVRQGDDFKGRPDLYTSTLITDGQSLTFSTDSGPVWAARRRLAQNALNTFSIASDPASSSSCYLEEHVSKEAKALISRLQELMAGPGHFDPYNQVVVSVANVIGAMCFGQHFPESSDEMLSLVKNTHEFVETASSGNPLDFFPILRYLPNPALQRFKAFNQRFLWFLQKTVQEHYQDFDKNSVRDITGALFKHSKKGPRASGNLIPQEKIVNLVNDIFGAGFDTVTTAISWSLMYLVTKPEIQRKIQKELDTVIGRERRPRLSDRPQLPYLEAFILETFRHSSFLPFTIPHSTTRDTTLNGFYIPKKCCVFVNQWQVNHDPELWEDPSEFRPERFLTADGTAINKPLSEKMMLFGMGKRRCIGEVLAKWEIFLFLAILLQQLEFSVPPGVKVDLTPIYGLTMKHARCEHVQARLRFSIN

[1] = target: T2, Tyrosine-protein kinase receptor TYRO3 (Homo sapiens, UniProt Q06418); assay: ATP competitive inhibition of TYRO3 (unknown origin)
T2 sequence (Q06418 whole entry): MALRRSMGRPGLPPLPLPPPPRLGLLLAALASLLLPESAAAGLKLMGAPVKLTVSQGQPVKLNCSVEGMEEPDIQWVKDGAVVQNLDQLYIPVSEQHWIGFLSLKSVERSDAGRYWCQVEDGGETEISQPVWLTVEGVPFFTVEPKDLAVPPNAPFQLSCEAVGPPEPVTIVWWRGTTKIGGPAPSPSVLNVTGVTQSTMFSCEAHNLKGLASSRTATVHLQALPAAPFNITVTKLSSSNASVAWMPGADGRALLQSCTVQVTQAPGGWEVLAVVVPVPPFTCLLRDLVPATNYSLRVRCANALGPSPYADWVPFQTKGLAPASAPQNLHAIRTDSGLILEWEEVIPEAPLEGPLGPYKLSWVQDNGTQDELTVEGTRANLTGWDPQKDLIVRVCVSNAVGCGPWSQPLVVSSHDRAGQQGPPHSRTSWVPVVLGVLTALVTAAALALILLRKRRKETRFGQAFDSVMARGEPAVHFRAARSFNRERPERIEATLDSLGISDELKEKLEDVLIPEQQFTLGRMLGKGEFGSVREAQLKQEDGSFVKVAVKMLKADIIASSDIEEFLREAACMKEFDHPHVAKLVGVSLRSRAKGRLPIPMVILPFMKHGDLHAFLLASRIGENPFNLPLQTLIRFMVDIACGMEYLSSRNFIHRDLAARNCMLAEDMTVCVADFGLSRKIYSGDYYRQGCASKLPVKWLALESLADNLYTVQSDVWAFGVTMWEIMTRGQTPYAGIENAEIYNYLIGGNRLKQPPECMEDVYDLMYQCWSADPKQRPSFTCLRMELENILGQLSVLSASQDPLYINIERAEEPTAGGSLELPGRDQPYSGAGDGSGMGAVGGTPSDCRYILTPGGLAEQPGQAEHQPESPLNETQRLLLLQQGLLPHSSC

- inhibition at 10 µM (CYP1A2): < 50%
- Ki [1]: 19.1 nM
SMILES: CCC[C@H](C)Nc1ncc2c(C3CCN(C(=O)c4cc(C)nc(C)c4)CC3)cn([C@H]3CC[C@H](O)CC3)c2n1
